Measured values from patent US20220304950A1, “[…] THE TREATMENT OF PATIENTS WITH MAJOR DEPRESSIVE DISORDER, INCLUDING SUICIDALITY” (JANSSEN PHARMACEUTICALS, INC., priority 2019, published 2022).

How the values were obtained:
Type in all cases: in vivo, human
[1] = tested on: adult patients with MDD assessed to be at imminent risk for suicide; experiment: CGI-SS-R (SIBAT), Study 2 (Example 5); settings: 24 hours post first dose
Text: The SIBAT is a suicide assessment tool that captures suicidal ideation and behavior(s) as reported by patients and reviewed by clinicians permitting efficient collection and documentation of clinical impression of severity of suicidality and imminent and long-term suicide risk and treatment plans.
The CGI-SS-R rating is scored on a 7-point scale from 0 (normal, not at all suicidal) to 6 (among the most extremely suicidal patients) and will be based on the totality of information available to the clinician, including information from the SIBAT. The CGI-SS-R summarizes the clinician's overall impression of severity of suicidality and will be used to assess the key secondary endpoint in this study. This rating operates like numerous other CGI-severity scales that have been used in other psychiatric studies. These instruments have shown clinical validity and sensitivity to change.
Key secondary efficacy variable: Change in CGI-SS-R from baseline to 24 hours post first dose (Day 2). The CGI-SS-R, derived from the Suicidal Ideation and Behavior Assessment Tool (SIBAT) rating is scored on a 7-point scale from 0 (normal, not at all suicidal) to 6 (among the most extremely suicidal patients).

[2] = tested on: adult patients with MDD assessed to be at imminent risk for suicide; experiment: MADRS subgroup analysis by prior suicide attempt, pooled Examples 4 and 5; settings: 24 hours after the first dose
Description: FIG. 11 is a forest plot for the MADRS at 24 hours post first dose: subgroup analyses pooled analysis for Examples 4 and 5.
(§1) In certain aspects, the disclosure relates to methods for reducing symptoms of major depressive disorder, including suicidality, in a human patient assessed to be at imminent risk for suicide comprising the administration of esketamine in addition to standard of care treatment. As reflected in the reported data, for depressive symptoms, the treatment differences favored the administration of esketamine plus standard of care treatment over standard of care treatment alone. In addition, treatment differences between patients that previously attempted suicide (attempters) and those that had not (non-attempters) were also present (see, e.g., data reflected in FIGS. 9-17). […] Improvement in this population is of clinical relevance considering that prior suicide attempt has been identified as the single most important predictor/risk factor for suicide in subjects with MDD.

[3] = tested on: adult patients with MDD assessed to be at imminent risk for suicide; experiment: MADRS total score, Study 1 (Example 4); settings: for MADRS total score change, Diff. of LS Means (SE) vs placebo + SOC: ANCOVA LOCF; for MADRS total score change, LS mean difference Testing-Reference (MMRM): Esk 84 mg + SOC minus placebo + SOC; for MADRS total score, change from baseline to Day 2 (LOCF), mean (SD): negative = improvement
Text: The primary efficacy evaluation will be the MADRS total score. The MADRS will be performed using the Structured Interview Guide for the Montgomery Asberg Depression Rating Scale. The MADRS is a clinician-rated scale designed to be used in subjects with MDD to measure depression severity and detect changes due to antidepressant treatment. The test consists of 10 items, each of which is scored from 0 (item not present or normal) to 6 (severe or continuous presence of the symptoms), for a total possible score of 60. Higher scores represent a more severe condition. The MADRS evaluates apparent sadness, reported sadness, inner tension, sleep, appetite, concentration, lassitude, interest level, pessimistic thoughts, and suicidal thoughts.
The typical recall period for the MADRS is 7 days. In this study, the MADRS will also be administered using a since last assessment recall, a 4-hour recall on Day 1 and Day 25 postdose, and a 24-hour recall on Day 2. For the MADRS performed at 4 hours postdose on Days 1 and 25, the MADRS scores for the sleep item recorded predose on the same day will be carried forward.
The primary efficacy analyses are based on the full efficacy analysis set which is defined as all randomized subjects who received at least 1 dose of double-blind study medication and have both a baseline and a post-baseline evaluation for the Montgomery Xsberg Depression Rating Scale (MADRS) total score or Clinical Global Impression-Severity of Suicidality-Revised (CGI-SS-R).
MADRS consists of 10 items that cover all of the core depressive symptoms: each item is scored from 0 (symptom is not present or is normal) to 6 (severe or continuous presence of the symptom). A total score (0 to 60) is calculated by summing the scores of all 10 items. A higher score represents a more severe condition.

[4] = tested on: adult patients with MDD assessed to be at imminent risk for suicide; experiment: CGI-SS-R subgroup analysis by prior suicide attempt, Examples 4 and 5; settings: 24 hours after the first dose
Text: FIG. 17 is a forest plot for the prior suicide attempt sub-group analysis using CGI-SS-R for Examples 4 and 5.
as §1

[5] = tested on: adult patients with MDD assessed to be at imminent risk for suicide; experiment: Treatment disposition, Study 1 (Example 4); settings: Esk 84 mg + SOC, double-blind phase, all randomized
Description: A total of 270 subjects were screened across 51 sites in 10 countries throughout the study period. Of those, 226 subjects were randomized to 1 of 2 treatment groups in a 1:1 ratio (114 in esketamine 84 mg+SOC and 112 in placebo+SOC). The randomization was stratified by study center and by the physician's assessment of the participant's need of standard of care antidepressant treatment prior to randomization on Day 1 (i.e., antidepressant monotherapy or antidepressant plus augmentation therapy).

[6] = tested on: adult patients with MDD assessed to be at imminent risk for suicide; experiment: Treatment disposition, Study 2 (Example 5); settings: Esk 84 mg + SOC, double-blind phase, all randomized
Description: A total of 273 subjects were screened across 50 sites in 12 countries throughout the study period. Of those, 230 subjects were randomized to 1 of 2 treatment groups in a 1:1 ratio (115 in esketamine 84 mg+SOC and 115 in placebo+SOC). Randomization was stratified by study center and by the physician's assessment of the subject's need of standard of care antidepressant treatment (i.e., antidepressant monotherapy or an antidepressant plus augmentation therapy); the standard of care was determined prior to randomization on Day 1. […] The mean age was 40.8 years, ranging from 18 to 64 years.

[7] = Esk 84 mg + SOC, 24 hours post first dose
[8] = Esk 84 mg + SOC, 24 hours post first dose, full efficacy analysis set

CN[C@]1(c2ccccc2Cl)CCCCC1=O [esketamine, (S)-2-(2-chlorophenyl)-2-(methylamino)cyclohexanone]
CGI-SS-R change, Hodges-Lehmann estimate (95% CI) of the difference vs placebo+SOC [1]: 0.0 (0.00; 0.00)
CGI-SS-R, change from baseline to Day 2 (LOCF), median (range) ([1]; esketamine 84 mg+SOC): −1.0 (−6; 2)
Estimated difference (95% CI) vs placebo+SOC in change in MADRS total score ([2]; subpopulation with prior suicide attempt (FIG. 11)): −4.81 (−7.26; −2.36)
Estimated difference (95% CI) vs placebo+SOC in change in MADRS total score ([2]; subpopulation without prior suicide attempt (FIG. 11)): −2.32 (−5.54; 0.91)
Effect size for the primary endpoint (MADRS) ([3]; 24 hours post first dose): 0.34
MADRS total score change, Diff. of LS Means (SE) vs placebo + SOC ([3]; 24 hours post first dose): −3.8 (1.39)
MADRS total score change, Diff. of LS Means (SE) vs placebo + SOC ([3]; 24 hours post first dose, listed as Esk): −3.8
MADRS total score, mean change from baseline (SD) ([3]; ESK+SOC): −16.4 (11.95)
MADRS total score change, LS mean difference Testing-Reference (MMRM) ([3]; Day 1 (DB): 4 H): −2.6
MADRS total score change, LS mean difference Testing-Reference (MMRM) ([3]; Day 2 (DB)): −3.7
MADRS total score change, LS mean difference Testing-Reference (MMRM) ([3]; Day 4 (DB)): −4.6
MADRS total score change, LS mean difference Testing-Reference (MMRM) ([3]; Day 8 (DB)): −2.5
MADRS total score change, LS mean difference Testing-Reference (MMRM) ([3]; Day 11 (DB)): −2.8
MADRS total score change, LS mean difference Testing-Reference (MMRM) ([3]; Day 15 (DB)): −1.5
MADRS total score change, LS mean difference Testing-Reference (MMRM) ([3]; Day 18 (DB)): −2.3
MADRS total score change, LS mean difference Testing-Reference (MMRM) ([3]; Day 22 (DB)): −3.2
MADRS total score change, LS mean difference Testing-Reference (MMRM) ([3]; Day 25 (DB): 4 H): −4.1
MADRS total score change, LS mean difference Testing-Reference (MMRM) ([3]; Day 25 (DB): predose): −2.6
MADRS total score, change from baseline to Day 2 (LOCF), median [3, 7]: −15.0
MADRS total score, Day 2 (DB) LOCF, mean [3, 8]: 24.7
MADRS total score, Day 2 (DB) LOCF, median [3, 8]: 26.0
MADRS total score, change from baseline to Day 2 (LOCF), mean (SD) [3, 7]: −16.4 (11.95)
MADRS total score, change from baseline to Day 2 (LOCF), mean (SD) ([3]; Esk 84 mg + SOC, 24 hours post first dose, listed as Esk): −16.4
MADRS total score change from baseline, LS mean (MMRM observed case) ([3]; Esk 84 mg + SOC, Day 1 (DB): 4 H): −12.8
MADRS total score change from baseline, LS mean (MMRM observed case) ([3]; Esk 84 mg + SOC, Day 2 (DB)): −15.7
MADRS total score change from baseline, LS mean (MMRM observed case) ([3]; Esk 84 mg + SOC, Day 4 (DB)): −18.3
MADRS total score change from baseline, LS mean (MMRM observed case) ([3]; Esk 84 mg + SOC, Day 8 (DB)): −19.0
MADRS total score change from baseline, LS mean (MMRM observed case) ([3]; Esk 84 mg + SOC, Day 11 (DB)): −20.8
MADRS total score change from baseline, LS mean (MMRM observed case) ([3]; Esk 84 mg + SOC, Day 15 (DB)): −21.6
MADRS total score change from baseline, LS mean (MMRM observed case) ([3]; Esk 84 mg + SOC, Day 18 (DB)): −23.1
MADRS total score change from baseline, LS mean (MMRM observed case) ([3]; Esk 84 mg + SOC, Day 22 (DB)): −23.5
MADRS total score change from baseline, LS mean (MMRM observed case) ([3]; Esk 84 mg + SOC, Day 25 (DB): 4 H): −28.8
MADRS total score change from baseline, LS mean (MMRM observed case) ([3]; Esk 84 mg + SOC, Day 25 (DB): predose): −24.3
Odds ratio (95% CrI) for an improved CGI-SS-R score relative to placebo+SOC ([4]; subjects with history of prior suicide attempt (FIG. 17)): 2.09 (1.06; 4.23)
Odds ratio (95% CrI) for an improved CGI-SS-R score relative to placebo+SOC ([4]; subpopulation without prior suicide attempt (FIG. 17)): 1.14 (0.46; 2.83)
Discontinuation due to adverse event, subjects % [5]: 4.4%
Discontinuation due to adverse event, subjects n [5]: 5
Discontinuation due to adverse event, subjects % [6]: 7.8%
Discontinuation due to adverse event, subjects n [6]: 9
